Test results published in ChEMBL document CHEMBL3507680, “University of Dundee, Gates Library screen for HepG2 cell viability”.

Assay: Human HepG2 cell viability assay in 384 well format
Type: toxicity, cell-based
Parameters: dose 125 nL, time 70.5 hour; concentration not given beside the values
Settings: HepG2 cells, read-out: Inhibition

| SMILES | cytotoxicity at 70.5 h [%] |
| --- | --- |
| O=C(NCCCN1CCCC1=O)Nc1ccc(Br)cc1Cl | -3.68 |
| COCCNc1cc(C(=O)N2CCOCC2)nc(C)n1 | 0.483 |
| CCn1nc(C)c2nnn(CC(=O)Nc3cccc(C)c3)c(=O)c21 | -10.1 |
| Cc1nc(NCCc2ccccc2)cc(C(=O)N2CCCCC2)n1 | -0.559 |
| COc1ccc(OCCc2nnc(NC(C)=O)s2)cc1 | -4.39 |
| Cc1nc(NCc2ccc(F)cc2)cc(C(=O)N2CCOCC2)n1 | -3.46 |
| Cc1c(Cc2ccccc2)c(O)nc2nc(N3CCOCC3)nn12 | -8.68 |
| Cc1cccc(NC(=O)CN2C(=O)CC(C)(C)c3ccccc32)n1 | -8.87 |
| CC1(C)CC(=O)N(CC(=O)Nc2ccon2)c2ccccc21 | -6.95 |
| O=C(Nc1cc(-c2ccncc2)no1)C1CCCCC1 | -6.08 |
| CCn1nc(C)c(NC(=O)c2nnn(Cc3ccccc3)c2OC)c1C | -5.09 |
| O=C(Nc1cc(-c2cccnc2)no1)C1CCC1 | -13 |
| O=C(Nc1cc(-c2ccccn2)no1)C1CC1 | 11.7 |
| CCCNC(=O)c1cc(C(C)C)nc(N2CCCCC2)n1 | 3.03 |
| CC(C)c1cc(C(=O)NCCN2CCOCC2)nc(N2CCCC2)n1 | -3.85 |
| Cc1ccnc(NC(=O)c2cccc(OCc3nnnn3C)c2)c1 | -17.9 |
| Cc1ccc(NC(=O)c2cccc(OCc3nnnn3C)c2)nc1 | -9.18 |
| CC(C)n1cc(N2CC(C(=O)N3CCN(C)CC3)CC2=O)cn1 (stereo not given) | -10.8 |
| CC(C)n1cc(N2CC(C(=O)N3CCCC3)CC2=O)cn1 (stereo not given) | -6.71 |
| COC(=O)CCn1ccc(=O)c2cc(OC)ccc21 | -0.582 |
| Oc1ccccc1-c1n[nH]c(C2CC2)n1 | 11.6 |
| Cc1cc2nc(O)c(O)nc2cc1S(=O)(=O)NC1CC1 | -12.3 |

| SMILES | cytotoxicity at 70.5 h [%] |
| --- | --- |
| CCn1nc(C)c2nc(C(C)C)nc(NCCCO)c21 | -16.2 |
| CCCc1nc(NCCCO)c2c(n1)c(C)nn2CC | -14 |
| CCNC(=O)c1nnn(Cc2ccccc2)c1OC | -7.02 |
| CCN(CC)C(=O)c1nnn(Cc2ccccc2)c1OC | 0.599 |
| CC(=O)Nc1ncc(S(=O)(=O)Nc2ccc(F)cc2F)s1 | -0.452 |
| COC(=O)c1cccc(NS(=O)(=O)c2cnc(NC(C)=O)s2)c1 | -1.8 |
| O=C(Cn1cc(I)cn1)N1CCc2ccccc2C1 | -3.15 |
| CCc1nc(NCCCn2cccn2)c2c(n1)c(C)nn2C | -1.69 |
| CCc1nc(NCCCOC)c2c(n1)c(C)nn2C | -13.4 |
| CCn1nccc1CNC(=O)C(C)n1cc2c(n1)c(C)nn2C (stereo not given) | 3.69 |
| Cc1cc(C(F)(F)F)nn1CC(C)C(=O)Nc1ccncc1 (stereo not given) | 1.22 |
| Cc1cc(C(F)(F)F)nn1C(C)C(=O)Nc1ccncc1 (stereo not given) | 23.9 |
| COc1ccc(CNC(=O)c2nn(C)c3c2CS(=O)(=O)CC3)cc1OC | 1.56 |
| Cc1nn(C)c2c(N3CCN(C(=O)C4CCC4)CC3)ncnc12 | -5.94 |
| CN(C)C(=O)CNC(=O)CCn1ncc2c(Cl)cccc21 | -5.6 |
| O=C(NCc1ccccc1)c1nnc2ccc(N3CCOCC3)cc2n1 | 4.86 |
| CCCNC(=O)c1cnc(N(C)C)nc1COC | -5.33 |
| COc1ccccc1CNC(=O)Cn1ncc2c1c(C)nn2C | 0.128 |
| CCN(CC)C(=O)c1ccn(COc2cc(C)cc(C)c2)n1 | 4.47 |
| CCN(CC)CCNC(=O)c1ccn(COc2cc(C)cc(C)c2)n1 | -3.13 |
| CCCN1CCN(C(=O)C(C)n2cc(Br)cn2)CC1 (stereo not given) | -7.56 |
| Cc1cccc2c1cnn2CCCNC(=O)C(C)C | -10 |

| SMILES | cytotoxicity at 70.5 h [%] |
| --- | --- |
| CC1(C)CC(N2Cc3nc(N)ncc3C2=O)CC(C)(C)N1 | -8 |
| CCOc1ccc(N2CCCN=C2NC(=O)c2cccc(Cl)c2)cc1 | -9.1 |
| CCOC(=O)CNC(=O)N1CCN(c2ncccn2)CC1 | -4.84 |
| CC(C)c1ccc(OCn2ccc(C(=O)N3CCCC3)n2)cc1 | -4.33 |
| Cc1nc(NCCc2ccc(Cl)cc2)cc(C(=O)N2CCOCC2)n1 | -7.59 |
| CC(C(=O)NCCCn1ccnc1)n1cc(Br)cn1 (stereo not given) | -9.82 |
| Cc1nn(CC(=O)N2CCN(c3ccccc3F)CC2)c(C)c1Cl | -2.28 |
| CCC(C)c1noc(C2CCN(C(=O)c3cccnc3)CC2)n1 (stereo not given) | -12.8 |
| CCn1cc(Br)c(C(=O)NCc2cnn(C)c2)n1 | -13.6 |
| CCn1cc(CN2C[C@@H]3CCCN3C[C@H]2CCSC)c(C)n1 | -4.8 |
| Cc1cc(N(C)C)nc(C2(C)CCCN2C(=O)c2ccccc2)n1 (stereo not given) | -8.94 |
| OCCN1CCC(c2cncc(-c3cccc(Cl)c3)n2)CC1 | -3.96 |
| c1cc(N2CCCC2c2cnccn2)ncn1 (stereo not given) | -10 |
| Cc1cc(N2CCCC2c2nccnc2C)ncn1 (stereo not given) | -5.86 |
| CN1CCCC1c1ccnc(C(=O)N(C)C2CCCCC2)c1 (stereo not given) | -11.9 |
| CC(=O)N1CCC(c2cc(Nc3ncccn3)nc(C)n2)C1 (stereo not given) | -6.88 |
| COCC(=O)N1CCCCC1c1ccnc(Nc2ncc(C)s2)n1 (stereo not given) | -0.578 |
| O=C(c1cncnc1)N1C[C@@H]2CC[C@H](Oc3cccc(F)c3)[C@@H]2C1 | -8.85 |
| Cc1cc(C)nc(Nc2cncc(C3CCCN(S(C)(=O)=O)C3)n2)n1 (stereo not given) | 33.8 |
| Cc1cccc(-c2cccc(CC3(C(=O)O)CCOCC3)c2)c1 | 9.91 |
| COCCN1CCC(c2cncc(N(C)C)n2)CC1 | 16.5 |
| O=C(C1CC1)N1CCC(c2nc(O)c3c(n2)CN(C2CCCC2)CC3)C1 (stereo not given) | 9.71 |

| SMILES | cytotoxicity at 70.5 h [%] |
| --- | --- |
| COCCC(=O)N1CCC(c2nc(O)cc(-c3ccncc3)n2)C1 (stereo not given) | -11.8 |
| Cc1c(C2CCCN(C(=O)c3ccn(C)n3)C2)n2c(nc1=O)CCC2 (stereo not given) | -7.35 |
| CC(=O)Nc1nc(C2CCN(C(=O)Cc3ccccc3)CC2)cs1 | -5.09 |
| COCCN1CCCC(CCCc2ccccn2)(C(N)=O)C1 (stereo not given) | -6.05 |
| CC(=O)N1CCN(C(C)C)CC(COc2ccccc2)C1 (stereo not given) | -6.04 |
| COCCN1CCC(Cc2cncc(-c3ccc(C(=O)O)cc3)n2)CC1 | 8.54 |
| Cc1cc(CN2CCOC(C)(C(=O)N3CCOCC3)C2)no1 (stereo not given) | -2.61 |
| CC1(C(=O)N2CCOCC2)CN(Cc2cccnc2)CCO1 (stereo not given) | -8.77 |
| CN(C)C(=O)C1CN(Cc2ccsc2)CCN(S(C)(=O)=O)C1 (stereo not given) | -6.36 |
| CN(C)C(=O)C1CN(Cc2ccccn2)CCN(S(C)(=O)=O)C1 (stereo not given) | -3.97 |
| NC(=O)C1(CCCc2ccncc2)CCCN1 (stereo not given) | -3.08 |
| CN1CCC(c2cncc(N(C)C)n2)CC1 | -4.58 |
| O=c1[nH]c(N2CCCCC2)nc2c1CCN(Cc1cccnc1)C2 | -6.55 |
| Cc1cc(-c2cnc(NC3CCCCC3)nc2-c2ccco2)on1 | -9.46 |
| Cc1c(C(=O)N2CCCC(n3nnc4cc(F)ccc43)C2)cnn1C (stereo not given) | -14.1 |
| C=Cn1cc(CN2CCc3nc(-c4cccnc4)nc(O)c3C2)c(C)n1 | -3.49 |
| Cc1cc(-c2cnc(NCc3ccncc3)nc2C(C)C)on1 | 2.62 |
| Cc1c(C2CCCN(C(=O)c3ccncc3)C2)n2c(nc1=O)CCC2 (stereo not given) | -9.8 |
| Cc1cnc(C(=O)N2CCCC(c3c(C)c(=O)nc4n3CCC4)C2)cn1 (stereo not given) | -7.55 |
